Literature values, collected in patent US7887848B2, “Nutraceutical treatments for diabetic and non-diabetic wound healing” (Interhealth Nutraceuticals, Inc., priority 2006, dated 2011).

SMILES: OO [H2O2]
- beneficial effect on wounds (H2O2 at strength of 3%): no beneficial effect
- dermal wound healing (topical H2O2 (Roy et al. 2006)): facilitates dermal wound healing
